# Measurements reported in patent US20060189581A1, “Compounds and methods for treating transplant rejection” (AtheroGenics, Inc., priority 1997, published 2006).
# Entries after “also recorded” stand apart in the source; their conditions may differ. Read-outs that look alike come from different tables or passages of the source.
# Tests used:
# [1] = Plasma compound levels in the rat aortic allograft study; type: in vivo; conditions: Lewis, subcutaneous, after 90 days of dosing, read-out: trough plasma levels
# Method: (§1) Compound A was administered subcutaneously to recipient animals three days prior to the surgery and once daily for 90 days thereafter. […] Thereafter, the dose was reduced to 30 mg/kg/d for 6 days and then further reduced to 5 mg/kg/d for the remainder of the study.
# (§2) On day 90, the allograft segment was removed, fixed in 10% buffered formalin and paraffin embedded. Sections were stained with von Geisson's elastic stain, and intima-to-media area (IM) ratio and percent luminal narrowing (% LN) were assessed by digital morphometry (See FIGS. 1 and 2). Blood was collected at regular intervals throughout the study and plasma evaluated for compound levels (See FIG. 3).
# [2] = tested on: ACI rat aorta transplanted into Lewis rat (graft arteriosclerosis); assay: Rat aortic allograft model (graft arteriosclerosis); type: in vivo
# Method: Compound A was evaluated for graft arteriosclerosis resulting from aortic heterotropic transplantation. This is a model of graft arteriopathy which is the major obstacle to long term success of solid organ transplantation.
# Donor descending aortas from ACI rats were heterotypically transplanted into Lewis rat abdomens in end-to-end fashion with minimal ischemic time. 55 rats were assigned to five groups as follows:
# as §1, §2
structure (smiles),measurement,setting,value
"CC(C)(Sc1cc(C(C)(C)C)c(O)c(C(C)(C)C)c1)Sc1cc(C(C)(C)C)c(OCCCC(=O)O)c(C(C)(C)C)c1 [Compound A, 4-[4-[[1-[[3,5-bis(1,1-dimethylethyl)-4-hydroxyphenyl]thio]-1-methylethyl]thio]-2,6-bis(1,1-dimethylethyl)phenoxy]butyric acid]",concentration at 90 days,[1]; 10 mg/kg/d subcutaneously,10 µM
same,concentration at 90 days,[1]; 20 mg/kg/d subcutaneously,18 µM
same,concentration at 90 days,[1]; 40/30/5 mg/kg/d subcutaneously,28 µM
same,IM ratio and % LN compared to the vehicle group,"[2]; 20 mg and 40/30/5 mg/kg/d doses, day 90",significantly lower
same,efficacy and gross toxicity,[2]; 20 mg/kg/d subcutaneously,efficacious without grossly discernable toxic side effects
same,"adverse findings (body weight, skin)","[2]; 40 mg/kg/d subcutaneously, until the dose was reduced",failure to gain weight and skin irritation; also recorded: initially lost weight
same,inhibition of aortic neointimal growth,"[2]; 10, 20 and 40/30/5 mg/kg/d subcutaneously, 90 days",dose-dependent inhibition
same,tolerability of treatment,"[2]; 10 and 20 mg/kg/d subcutaneously, animals regained weight post surgery",well tolerated
same,percent inhibition of the % LN (percent luminal narrowing),"[2]; 40/30/5 mg/kg/d subcutaneously, day 90, compared to vehicle control",52%
